“And” between values parts separate entries of the source, which are not always exact repeats. Equal entries are not always repeated.
What was measured:
THP1-Lucia cells = assay: THP1-Lucia cell-based luciferase reporter assay
Experimental: THP1-Lucia cell-based reporter assay. THP1-Lucia cells were seeded into a 24-well plate at a density of 5 × 10^4 cells/well. […] Finally, the medium was collected to determine the luciferase activity using QUANTI-Luc (InvivoGen, San Diego, CA, USA) according to the manufacturer′s instruction to calculate the EC50 values of the tested compounds. The results are expressed as the mean ± SD from three independent experiments. Emax values were normalized to the response induced by 2′,3′-cGAMP in each assay and expressed as a mean percentage ± SD from three independent experiments. The THP1-Lucia cell line was obtained from Prof. Junmin Quan from Peking University (Beijing, China).
Figure 5 The luciferase-based assay in the THP1-Lucia reporter cell line. (a) EC50 values represent the mean (±SD) of three independent experiments. (b) Emax values represent the mean (±SD) of three independent experiments.

THP-1 cells [1] = assay: RT-qPCR of cytokine mRNA levels in THP-1 cells; assay type: cell-based; settings: 4 h
Experimental: Real-time quantitative PCR (RT-qPCR). The mRNA expression levels of diverse cytokines were measured using quantitative RT-PCR (RT-qPCR) assays. THP-1 cells or CT26 cells were incubated with the compounds for 4 h, subsequently harvested for RNA isolation according to the manufacturer’s instructions of RNApure Tissue&Cell Kit (DNase I) (CWBIO, Cambridge, MA, USA catalogue no. CW0560S). Next, 1 μg RNA was reversely transcribed to cDNA by TransScript All-in-One First-Strand cDNA Synthesis SuperMix for qPCR (One-Step gDNA Removal) (TransGen, Beijing, China). To examine the mRNA levels, real-time PCR was performed in a CFX96 Real-Time PCR system (Bio-RAD, Hercules, CA, USA) using PerfectStart Green qPCR Super Mix (TransGen) and primers (Sangon Biotech, Shanghai, China). The expression level was calculated according to the formula (2^−∆∆Ct) using the GAPDH or β-actin as the internal reference gene and the relative gene expression fold was normalized to the DMSO-treated cells. The THP-1 and CT26 cell lines were obtained from American Type Culture Collection (ATCC, Manassas, VA, USA).
Figure 7 Prodrug 9 improved the production of the type I interferons and proinflammatory cytokines in THP-1 cells. The mRNA expression levels of IFN-β (a), CXCL10 (b), IL-6 (c), and TNF-α (d) were assessed via real-time quantitative PCR (qPCR) under the treatment of prodrug 9 (10 μM), 3′,3′-c-di-dAMP (100 μM), 2′,3′-cGAMP (100 μM), and ADU-S100 (10 μM) for 4 h.

THP-1 cells [2] = assay: CCK8 cell viability, THP-1 cells; assay type: cell-based; settings: 10 μM, 24 h
Experimental: (§1) Cell viability of THP-1 and HEK293T cells. A total of 5 × 10^3 HEK293T cells or THP-1 cells were seeded in 96-well plates. […] Cell counting kit-8 (CCK8) (US EVERBRIGHT, Newport Beach, CA, USA, c6005) was then used to quantitatively assess the cell viability through the OD value at 450 nm. The HEK293T cell line was obtained from American Type Culture Collection (ATCC).
(§2) Figure 8 Cell viability of THP-1 and HEK293T cells stimulated by prodrug 9 and 2′,3′-cGAMP. (a) A total of 5 × 10^3 THP-1 cells or (b) HEK293T cells were seeded in 96-well plates. Cells were stimulated with prodrug 9 (10 μM), 3′,3′-c-di-dAMP (100 μM), and 2′,3′-cGAMP (100 μM) for 24 h. Then, cell counting kit-8 (CCK8) (US EVERBRIGHT, c6005) was used to quantitatively assess cell viability through the OD value at 450 nm. Data are presented as mean ± SD, n = 3.

HEK293T cells = assay: CCK8 cell viability, HEK293T cells; assay type: cell-based; settings: 10 μM, 24 h
Experimental: as §1, §2

THP-1 cells [3] = assay: Western blot of STING/TBK1/IRF3 phosphorylation in THP-1 cells; assay type: cell-based; settings: 4 h
Experimental: Western blotting. THP-1 cells (8 × 10^5 cells/well) were seeded into a 6-well plate and treated with prodrug 9, 2′,3′-cGAMP, 3′,3′-c-di-dAMP, and ADU-S100 for 4 h. The total proteins from the cells were extracted via cold RIPA buffer supplemented with protease inhibitors. Cell lysates were harvested via 1 × SDS-PAGE sample loading buffer (Cat. code: P0015, Beyotime, Shanghai, China), boiled at 100 °C for 10 min. Cell lysates were run on 10% SDS-PAGE gels and transferred onto NC membranes. The membranes were blocked with 5% BSA for 1 h and incubated with primary antibodies against STING, phospho-STING (Ser366), TBK1, phospho-TBK1 (Ser172), IRF3, phospho-IRF3 (Ser386), or β-actin overnight at 4 °C. Horseradish peroxidase-conjugated secondary antibodies were used as secondary antibodies. Finally, the membrane was detected using enhanced chemiluminescence for imaging.
Figure 9 Prodrug 9 activated the STING signalling pathway through stimulating the phosphorylation of STING, TBK1, and IRF3. Prodrug 9 (10 μM), 2′,3′-cGAMP (100 μM), 3′,3′-c-di-dAMP (100 μM), and ADU-S100 (10 μM) were used to treat THP-1 cells for 4 h, and the levels of total STING, phospho-STING, total TBK1, phospho-TBK1, total IRF3, phospho-IRF3, and β-actin were detected via Western blotting. The raw images of western blots were also placed in pages S16–S22 in Supplementary Materials.
Figure S4. Relative quantification of phospho-STING, phospho-TBK1, phospho-IRF3. Prodrug 9 (10
μM), 2′,3′-cGAMP (100 μM), 3′,3′-c-di-dAMP (100 μM) and ADU-S100 (10 μM) were used to treat
THP-1 cells for 4 h, and the levels of total STING, phospho-STING, total TBK1, phospho-TBK1, total
IRF3, phospho-IRF3, and β-actin were assessed by western blotting. […]

THP-1 cells [4] = settings: human, 10 μM
Experimental: Uptake of DTE-dCDN Prodrug. THP-1 cells were seeded at a concentration of 5 × 10^6 cells/mL into a 12-well plate. After 16 h of incubation at 37 °C in a 5% CO2 atmosphere, the compounds were added to cell cultures and the cells were collected at time points of 1 h, 2 h, 4 h, 6 h, 8 h, 12 h, and 24 h by centrifugation for 1 min at 1000× g. The media was removed completely, and the cells were washed twice with 800 μL of ice-cold PBS before being lysed with 400 μL ice-cold 70% methanol. Lysates were incubated overnight at −20 °C and then centrifuged for 20 min at 13,000× g to remove cellular debris. The supernatant was analyzed via LC/MS/MS (Agilent 1290 Infinity II/6470A)
(a) The intracellular concentration of the prodrug 9 in THP-1 cells. (b) The intracellular concentration of the parent dCDN (3′,3′-c-di-dAMP) in THP-1 cells. THP-1 cells were treated with 10 μM prodrug 9 or 100 μM parent dCDN (3′,3′-c-di-dAMP) for the indicated period of time (1, 2, 4, 6, 8, 12, 24 h), and the intracellular concentration of the metabolites in cellular extracts was determined with liquid chromatograph MS/MS analysis.

[5] = THP-1, prodrug 9 10 μM vs 2′,3′-cGAMP 100 μM
[6] = THP-1, prodrug 9 10 μM vs 3′,3′-c-di-dAMP 100 μM
[7] = THP-1, prodrug 9 10 μM vs ADU-S100 10 μM

Nc1ncnc2c1ncn2C1CC2OP(=O)(OCCSSc3ccccn3)OCC3OC(n4cnc5c(N)ncnc54)CC3OP(=O)(OCCSSc3ccccn3)OCC2O1 (stereo not drawn) [prodrug 9]
fold activity (EC50) vs 3′,3′-c-di-dAMP (THP1-Lucia cells): ~43 fold
fold activity (EC50) vs ADU-S100 (THP1-Lucia cells): ~3.0 fold and 3 fold
maximum activation fold (Emax) relative to 2′,3′-cGAMP (THP1-Lucia cells): approximately 1.8 fold
maximum activation fold (Emax) relative to 3′,3′-c-di-dAMP (THP1-Lucia cells): ~1.9 fold
maximum activation fold (Emax) relative to ADU-S100 (THP1-Lucia cells): ~1.4 fold
EC50 (THP1-Lucia cells; 24 h): 960 nM
CXCL10 mRNA expression, fold compared to 2′,3′-cGAMP (THP-1 cells [1]; [5]): ~17 fold
IFN-β mRNA expression, fold compared to 2′,3′-cGAMP (THP-1 cells [1]; [5]): approximately 40 fold
IL-6 mRNA expression, fold compared to 2′,3′-cGAMP (THP-1 cells [1]; [5]): ~1.2 fold
TNF-α mRNA expression, fold compared to 2′,3′-cGAMP (THP-1 cells [1]; [5]): ~46 fold
CXCL10 mRNA expression, fold compared to 3′,3′-c-di-dAMP (THP-1 cells [1]; [6]): ~26 fold
IFN-β mRNA expression, fold compared to 3′,3′-c-di-dAMP (THP-1 cells [1]; [6]): approximately 43 fold
IL-6 mRNA expression, fold compared to 3′,3′-c-di-dAMP (THP-1 cells [1]; [6]): ~1.4 fold
TNF-α mRNA expression, fold compared to 3′,3′-c-di-dAMP (THP-1 cells [1]; [6]): ~12 fold
CXCL10 mRNA expression, fold higher than ADU-S100 (THP-1 cells [1]; [7]): 14 fold
IFN-β mRNA expression, fold higher than ADU-S100 (THP-1 cells [1]; [7]): 14 fold
IL-6 mRNA expression, fold higher than ADU-S100 (THP-1 cells [1]; [7]): 1.9 fold
TNF-α mRNA expression, fold higher than ADU-S100 (THP-1 cells [1]; [7]): 15 fold
cell viability (CCK8), THP-1 cells (THP-1 cells [2]): no significant influence on the growth
cell viability (CCK8), HEK293T cells (HEK293T cells): no significant influence on the growth
relative expression of phospho-IRF3, fold compared to 2′,3′-cGAMP (THP-1 cells [3]; [5]): 19.8 fold
relative expression of phospho-STING, fold compared to 2′,3′-cGAMP (THP-1 cells [3]; [5]): 20.8 fold
relative expression of phospho-TBK1, fold compared to 2′,3′-cGAMP (THP-1 cells [3]; [5]): 6.9 fold
relative expression of phospho-IRF3, fold compared to 3′,3′-c-di-dAMP (THP-1 cells [3]; [6]): 6.5 fold
relative expression of phospho-STING, fold compared to 3′,3′-c-di-dAMP (THP-1 cells [3]; [6]): 5.5 fold
relative expression of phospho-TBK1, fold compared to 3′,3′-c-di-dAMP (THP-1 cells [3]; [6]): 3.6 fold
relative expression of phospho-IRF3, fold compared to ADU-S100 (THP-1 cells [3]; [7]): 1.8 fold
relative expression of phospho-STING, fold compared to ADU-S100 (THP-1 cells [3]; [7]): 1.6 fold
relative expression of phospho-TBK1, fold compared to ADU-S100 (THP-1 cells [3]; [7]): 1.3 fold
time at which intracellular levels of prodrug 9 peaked (THP-1 cells [4]): 2 h
